Reference: patent publication US6737383B1, “Herbicidal oxadiazolidines” (priority 1999, dated 2004)

Assays:
blackgrass = test: Test B pre/postemergence blackgrass; assay type: in vivo, Alopecurus myosuroides
How it was run: (§1)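 Response is a visual 0-to-10 score relative to untreated plants, where 0 means no effect and 10 means complete control, taken twelve to sixteen days after application. Treatments went onto soil at planting and onto foliage of 1- to 4-leaf plants, using a surfactant-containing non-phytotoxic solvent.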

wheat = test: Test B pre/postemergence wheat; assay type: in vivo, Triticum aestivum
How it was run: as §1

wild oat = test: Test B pre/postemergence wild oat; assay type: in vivo, Avena fatua
How it was run: as §1

surinam grass = test: Test B pre/postemergence surinam grass; assay type: in vivo, Brachiaria decumbens
How it was run: as §1

corn = test: Test B pre/postemergence corn; assay type: in vivo, Zea mays
How it was run: as §1

giant foxtail = test: Test B pre/postemergence giant foxtail; assay type: in vivo, Setaria faberii
How it was run: as §1

purple nutsedge = test: Test B pre/postemergence purple nutsedge; assay type: in vivo, Cyperus rotundus
How it was run: as §1

crabgrass = test: Test B pre/postemergence crabgrass; assay type: in vivo, Digitaria sanguinalis
How it was run: as §1

pigweed = test: Test B pre/postemergence pigweed; assay type: in vivo, Amaranthus retroflexus
How it was run: as §1

rape = test: Test B pre/postemergence rape; assay type: in vivo, Brassica napus
How it was run: as §1

sugar beet = test: Test B pre/postemergence sugar beet; assay type: in vivo, Beta vulgaris
How it was run: as §1

morningglory = test: Test B pre/postemergence morningglory; assay type: in vivo, Ipomoea hederacea
How it was run: as §1

bedstraw = test: Test B pre/postemergence bedstraw; assay type: in vivo, Galium aparine
How it was run: as §1

rice = test: Test B flood test rice; assay type: in vivo, Oryza sativa
How it was run: (§2)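 Flood test on plants grown to the 2-leaf stage; treated plants kept in greenhouse twelve to sixteen days, then visually rated against controls on a 0 (no effect) to 10 (complete control) scale.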

bamyardgrass = test: Test B flood test barnyardgrass; assay type: in vivo, Echinochloa crus-galli
How it was run: as §2

smallflower flatsedge = test: Test B flood test smallflower flatsedge; assay type: in vivo, Cyperus difformis
How it was run: as §2

[1] = Preemergence, Rate 62 g/ha, scale of 0 to 10 where 0 is no effect and 10 is complete control
[2] = Preemergence, Rate 125 g/ha, 0 is no effect, 10 is complete control
[3] = Preemergence, Rate 250 g/ha, scale 0 to 10, 0 is no effect, 10 is complete control
[4] = Preemergence, Rate 500 g/ha, scale of 0 to 10 where 0 is no effect and 10 is complete control
[5] = Rate 62 g/ha, Postemergence, scale of 0 to 10 where 0 is no effect and 10 is complete control
[6] = Rate 125 g/ha, Postemergence, scale 0 to 10
[7] = Rate 500 g/ha, Postemergence, scale 0 to 10
[8] = Rate 62 g/ha, Postemergence section, flood test species, scale of 0 to 10 where 0 is no effect and 10 is complete control
[9] = Rate 125 g/ha, listed under Postemergence (flood test species), scale 0 to 10
[10] = Rate 250 g/ha, Postemergence section, flood test species
[11] = Rate 500 g/ha, listed under Postemergence (flood test species), scale 0 to 10

C=C(C)CCn1c(=O)on(C(=O)N(c2ccc(F)cc2)C(C)C)c1=O [Compound 199]
5: Sugarbeets plant response rating (0 to 10 scale) (sugar beet; [2]) | Sugarbeets plant response rating (sugar beet; [3])
6: Blackgrass plant response rating (blackgrass; [1]) | B. signalgrass plant response rating (surinam grass; [3]) | Crabgrass plant response rating (crabgrass; [1]) | Crabgrass plant response rating (0 to 10 scale) (crabgrass; [2]) | Redroot pigweed plant response rating (pigweed; [7]) | Plant response rating, Sugarbeets (sugar beet; [4])
1: B. signalgrass plant response rating (0 to 10 scale) (surinam grass; [2])
10: Blackgrass plant response rating (0 to 10 scale) (blackgrass; [2]) | Blackgrass plant response rating (blackgrass; [3]) | Plant response rating, Blackgrass (blackgrass; [4]) | Giant foxtail plant response rating (0 to 10 scale) (giant foxtail; [2]) | Giant foxtail plant response rating (giant foxtail; [3]) | Plant response rating, Giant foxtail (giant foxtail; [4]) | Plant response rating, Nutsedge (purple nutsedge; [4]) | Crabgrass plant response rating (crabgrass; [3]) | Plant response rating, Crabgrass (crabgrass; [4]) | Redroot pigweed plant response rating (pigweed; [3]) | Plant response rating, Redroot pigweed (pigweed; [4])
8: Plant response rating (0 to 10; 0 is no effect, 10 is complete control), Crabgrass (crabgrass; Rate 250 g/ha, Postemergence) | Crabgrass plant response rating (crabgrass; [7]) | Morningglory plant response rating (morningglory; [7]) | Barnyardgrass plant response rating (bamyardgrass; [11])
9: Plant response rating (0 to 10; 0 is no effect, 10 is complete control), Blackgrass (blackgrass; Rate 250 g/ha, Postemergence) | Blackgrass plant response rating (blackgrass; [7]) | Plant response rating, B. signalgrass (surinam grass; [4])
4: Blackgrass plant response rating (blackgrass; [6]) | Wild oats plant response rating (wild oat; [3]) | Sugarbeets plant response rating (sugar beet; [1]) | Morningglory plant response rating (morningglory; [5]) | Morningglory plant response rating (morningglory; [6]) | Plant response rating (0 to 10; 0 is no effect, 10 is complete control), Morningglory (morningglory; Rate 250 g/ha, Postemergence)
7: Plant response rating, Wild oats (wild oat; [4]) | Giant foxtail plant response rating (giant foxtail; [1]) | Giant foxtail plant response rating (giant foxtail; [7]) | Redroot pigweed plant response rating (pigweed; [1]) | Redroot pigweed plant response rating (0 to 10 scale) (pigweed; [2]) | S. Flatsedge plant response rating (smallflower flatsedge; [11])
0: Blackgrass plant response rating (blackgrass; [5]) | Wheat plant response rating (wheat; [1]) | Wheat plant response rating (wheat; [3]) | Plant response rating, Wheat (wheat; [4]) | Wheat plant response rating (wheat; [5]) | Wild oats plant response rating (wild oat; [1]) | Wild oats plant response rating (wild oat; [5]) | Wild oats plant response rating (wild oat; [6]) | Plant response rating (0 to 10; 0 is no effect, 10 is complete control), Wild oats (wild oat; Rate 250 g/ha, Postemergence) | B. signalgrass plant response rating (surinam grass; [1]) | B. signalgrass plant response rating (surinam grass; [5]) | B. signalgrass plant response rating (surinam grass; Rate 125 g/ha, Postemergence, scale 0 (no effect) to 10 (complete control)) | Plant response rating, B. signalgrass (surinam grass; Rate 250 g/ha, Postemergence, scale 0 to 10, 0 is no effect, 10 is complete control) | Corn plant response rating (corn; [1]) | Corn plant response rating (0 to 10 scale) (corn; [2]) | Corn plant response rating (corn; [3]) | Plant response rating, Corn (corn; [4]) | Corn plant response rating (corn; [5]) | Corn plant response rating (corn; [6]) | Plant response rating (0 to 10; 0 is no effect, 10 is complete control), Corn (corn; Rate 250 g/ha, Postemergence) | Corn plant response rating (corn; [7]) | Giant foxtail plant response rating (giant foxtail; [5]) | Nutsedge plant response rating (purple nutsedge; [1]) | Nutsedge plant response rating (0 to 10 scale) (purple nutsedge; [2]) | Nutsedge plant response rating (purple nutsedge; [3]) | Nutsedge plant response rating (purple nutsedge; [5]) | Nutsedge plant response rating (purple nutsedge; [6]) | Plant response rating (0 to 10; 0 is no effect, 10 is complete control), Nutsedge (purple nutsedge; Rate 250 g/ha, Postemergence) | Nutsedge plant response rating (purple nutsedge; [7]) | Crabgrass plant response rating (crabgrass; [5]) | Redroot pigweed plant response rating (pigweed; [5]) | Redroot pigweed plant response rating (pigweed; [6]) | Rape plant response rating (rape; [1]) | Rape plant response rating (0 to 10 scale) (rape; [2]) | Rape plant response rating (rape; [3]) | Plant response rating, Rape (rape; [4]) | Rape plant response rating (rape; [5]) | Rape plant response rating (rape; [6]) | Plant response rating (0 to 10; 0 is no effect, 10 is complete control), Rape (rape; Rate 250 g/ha, Postemergence) | Rape plant response rating (rape; [7]) | Sugarbeets plant response rating (sugar beet; [5]) | Sugarbeets plant response rating (sugar beet; [6]) | Plant response rating (0 to 10; 0 is no effect, 10 is complete control), Sugarbeets (sugar beet; Rate 250 g/ha, Postemergence) | Morningglory plant response rating (morningglory; [1]) | Morningglory plant response rating (0 to 10 scale) (morningglory; [2]) | Morningglory plant response rating (morningglory; [3]) | Plant response rating, Morningglory (morningglory; [4]) | Bedstraw plant response rating (bedstraw; [1]) | Bedstraw plant response rating (0 to 10 scale) (bedstraw; [2]) | Bedstraw plant response rating (bedstraw; [3]) | Plant response rating, Bedstraw (bedstraw; [4]) | Bedstraw plant response rating (bedstraw; [5]) | Bedstraw plant response rating (bedstraw; [6]) | Plant response rating (0 to 10; 0 is no effect, 10 is complete control), Bedstraw (bedstraw; Rate 250 g/ha, Postemergence) | Rice plant response rating (rice; [8]) | Rice plant response rating (rice; [9]) | Plant response rating (0 to 10; 0 is no effect, 10 is complete control), Rice (rice; [10]) | Rice plant response rating (rice; [11]) | Barnyardgrass plant response rating (bamyardgrass; [8]) | Barnyardgrass plant response rating (bamyardgrass; [9]) | Plant response rating (0 to 10; 0 is no effect, 10 is complete control), Barnyardgrass (bamyardgrass; [10]) | S. Flatsedge plant response rating (smallflower flatsedge; [8]) | S. Flatsedge plant response rating (smallflower flatsedge; [9])
3: Plant response rating (0 to 10; 0 is no effect, 10 is complete control), Wheat (wheat; Rate 250 g/ha, Postemergence)
2: Wheat plant response rating (wheat; [6]) | Giant foxtail plant response rating (giant foxtail; [6]) | Plant response rating (0 to 10; 0 is no effect, 10 is complete control), Giant foxtail (giant foxtail; Rate 250 g/ha, Postemergence) | Crabgrass plant response rating (crabgrass; [6]) | Plant response rating (0 to 10; 0 is no effect, 10 is complete control), Redroot pigweed (pigweed; Rate 250 g/ha, Postemergence) | Sugarbeets plant response rating (sugar beet; [7]) | Bedstraw plant response rating (bedstraw; [7]) | Plant response rating (0 to 10; 0 is no effect, 10 is complete control), S. Flatsedge (smallflower flatsedge; [10])
